Data on two compounds can be found in patent publication US20140221324A1, “COMPOSITION FOR THE REDUCTION OF DRIP LOSSES IN PORK” (DSM IP ASSETS B.V., priority 2008, published 2014).

Holding throughout (assay type): in vivo, pig (Large-White x Landrace)
Test [1] relates to ilio-spinalis (longissimus dorsi) muscle. As to the kind of experiment: pH of the ilio-spinalis (longissimus dorsi) muscle at slaughter and after 24 h storage. The conditions noted are these: for pH after 24 h / pH at slaughter: ilio-spinalis muscle, mean ± SD of 20 determinations; for pH after 24 h: after 24 hours storage at +4° C.; for pH at slaughter: measured immediately; for pH after 24 h, value in brackets relative to group A (100) / pH at slaughter, value in brackets relative to group A (100): index. The procedure: (§1) Fifty 28-d old Large-White x Landrace weaner piglets having an initial body weight of 7.9±0.74 kg were used. The animals were allocated into two equal groups (A and B) and housed in cages in sub-groups (two of 8 and one of 9 animals) in an environmentally controlled room. […] Room temperature was initially 27° C. and was lowered weekly by about 2° C. until 21-22° C. Environment humidity percentage throughout the experiment was 50%. The experiments were performed in the facilities of the Centre de Recherche en Nutrition Animate (CRNA), DSM Nutritional Products France, BP 170, 68305 Saint-Louis cedex, France. They have been performed according to the French legal regulations on experiments with live animals.
(§2) Each group of animals was fed either a basal diet with the addition of 2000 IU/kg of vitamin D3 (group A) or the basal diet, without vitamin D3, and supplemented with 50 μg/kg of 25-hydroxycholecalciferol (Rovimix® Hy•D® commercially available from DSM Nutritional Products) (group B).
(§3) At the end of the post-weaning phase the twenty heaviest animals of each group were used for the growing-fattening period. […] Room temperature was 21-22° C. and humidity percentage was 50%.
(§4) The pigs were fed for 87 days a diet supplemented either with 2000 IU/kg of vitamin D3 (group A, animals ingesting during the post-weaning phase 2000 U/kg) or with 50 μg/kg of 25-hydroxycholecalciferol (group B, animals ingesting during the post-weaning phase 50 μg/kg). The basal diet (Table 2) was formulated to meet the animals' requirements according to Henry et al. 1989 In: L'alimentation des animaux domestiques—pore, lapin, volailles INRA), 2ème édition, INRA, Paris, 49-76 and NRC, 1998. Nutrient requirements of swine, 10th revised edition, National Academic Press. Washington DC, U.S.A.
(§5) In one of the mid-carcass, the entire ilio-spinalis muscle (longissimus dorsi) was dissected. Each muscle was weighed and pH was measured immediately and after 24 hours storage at +4° C. The muscles were individually conditioned into inflated plastic bags for water recovery during storage. Percentage of drip loses from muscles was estimated by weight difference and water recovery.
(§6) Statistical treatment of the results involved the calculation of the mean and the standard deviation of the mean as well as a two-factor hierarchical analysis of variance at 95% confidence level.

Test [2] relates to growing-fattening pig. Put plainly: Carcass cold yield after long-term dietary supplementation of growing-fattening pigs. The conditions noted are these: for carcasses' cold yield, value in brackets relative to group A (100): index, group A (2000 IU/kg D3) = 100; for carcasses' cold yield: pigs fed supplemented diet (2000 IU/kg D3 or 50 μg/kg 25-OH D3), carcass weighed after 24 h at +4° C., mean ± SD of 20 determinations. The procedure: as §1, §2, §3, §4
At the end of the experiment, all animals were randomly divided into four different lots and assigned to one slaughter campaign: days 84th, 85th, 86th and 87th. Animals of each lot were fasted for 12 hours and weighed just before they were slaughtered after tranquilization and stunning. The carcasses were sawed longitudinally following the spinal canal and weighed after 24 hours storage at +4° C. to estimate the carcasses' cold yield.
as §6

For test [3], the system named is ilio-spinalis (longissimus dorsi) muscle. As to the kind of experiment: Drip losses of the ilio-spinalis (longissimus dorsi) muscle. As to conditions: for Drip loss by water recovery / Drip loss by weight difference: ilio-spinalis muscle, mean ± SD of 20 determinations; for Drip loss by water recovery: 24 h storage at +4° C. in plastic bags; for Drip loss by weight difference: 24 h storage at +4° C.; for Drip loss by water recovery, value in brackets relative to group A (100) / Drip loss by weight difference, value in brackets relative to group A (100): index. As to the method: as §1, §2, §3, §4, §5, §6

The subject of test [4] is growing-fattening pig. Put plainly: Carcass lean/fat ratio after long-term dietary supplementation of growing-fattening pigs. As to conditions: for carcasses' lean/fat ratio, value in brackets relative to group A (100): index, group A (2000 IU/kg D3) = 100; for carcasses' lean/fat ratio: pigs fed supplemented diet (2000 IU/kg D3 or 50 μg/kg 25-OH D3), mean ± SD of 20 determinations. The procedure: as §1, §2, §3, §4
In the second mid-carcass lean and fat were measured at three different points with a caliper square tool. Muscular depth was measured after dissection of the ilio-spinalis muscle (longissimus dorsi) at the level of the 4th dorsal vertebrae. The sub-cutaneous back fat deposition was measured at the levels of the 4th dorsal and lumbar vertebras. These measures were used to estimate the carcasses' lcan/fat ratio.
as §6

[5] abbreviates: dietary supplementation vs. vitamin D3 control group.

Turning to `C=C1CC[C@H](O)C/C1=C/C=C1\CCC[C@]2(C)[C@@H]([C@H](C)CCCC(C)(C)O)CC[C@@H]12` [25-OH D3, 25-hydroxycholecalciferol], in test [1] (ilio-spinalis muscle segments), the “pH values immediately after slaughter and after 24 hours storage compared to control group (in words)” value is given as “similar”. For the same compound, in test [1], the “pH after 24 h” value came to 5.51 ± 0.04; the pH at slaughter turned out to be 5.89 ± 0.16; the “pH after 24 h, value in brackets relative to group A (100)” value is listed as “(100)”; the “pH at slaughter, value in brackets relative to group A (100)” value was “(101)”. Besides, the “effect on the cold yield of the carcasses (in words)” value with growing-fattening pig [2] (setting [5]) is “no positive effects”. Moreover, in the test with growing-fattening pig [2], the “carcasses' cold yield, value in brackets relative to group A (100)” value is reported as “(99)” and the “carcasses' cold yield” value is 81.11 ± 1.71 % of live weight. In addition, in test [3], the “Drip loss by water recovery” value was determined as 0.45 ± 0.23%; the “Drip loss by weight difference” value came out at 1.51 ± 0.28%; the “Drip loss by water recovery, value in brackets relative to group A (100)” value was “(58)”; the “Drip loss by weight difference, value in brackets relative to group A (100)” value was “(78)”. Besides, in test [3] (vs. control group), the “mass lost from muscular segments (in words)” value is on record as “less mass was lost” and the “water volumes recovered from muscular segments (in words)” value is “clearly smaller water volumes were recovered”. For the same compound, the “effect on the lean/fat ratio of the carcasses (in words)” value in the test with growing-fattening pig [4] (setting [5]) is reported as “no positive effects”. Further, in the test with growing-fattening pig [4], the “carcasses' lean/fat ratio, value in brackets relative to group A (100)” value was “(99)” and the “carcasses' lean/fat ratio” value was 67.70 ± 2.99%.
For `C=C1CC[C@H](O)C/C1=C/C=C1\CCC[C@]2(C)[C@@H]([C@H](C)CCCC(C)C)CC[C@@H]12` [D3, vitamin D3], in test [1], the “pH after 24 h” value is reported as 5.49 ± 0.05^(1); the pH at slaughter is on record as 5.85 ± 0.21^(1); the “pH after 24 h, value in brackets relative to group A (100)” value was “(100)”; the “pH at slaughter, value in brackets relative to group A (100)” value is “(100)”. In the test on growing-fattening pig [2], the “carcasses' cold yield, value in brackets relative to group A (100)” value is recorded as “(100)” and the “carcasses' cold yield” value is 81.85 ± 0.76^(1) % of live weight. In addition, in test [3], the “Drip loss by water recovery” value is listed as 0.78 ± 0.74^(1) %; the “Drip loss by weight difference” value was 1.94 ± 0.85^(1) %; the “Drip loss by water recovery, value in brackets relative to group A (100)” value is “(100)”; the “Drip loss by weight difference, value in brackets relative to group A (100)” value was “(100)”. Moreover, in the test on growing-fattening pig [4], the “carcasses' lean/fat ratio, value in brackets relative to group A (100)” value is “(100)” and the “carcasses' lean/fat ratio” value was 68.42 ± 2.26^(1) %.
